Laboratory results: ChEMBL document CHEMBL1201862, “PubChem BioAssay data set” (2004)
Activity calls are given as the source filed them.

Legend:
[1] = target: T1, High affinity choline transporter 1 (Homo sapiens, UniProt Q9GZV3); test: human choline transporter blockers, potency – cell-based, 5-point CRC, membrane potential dye, dose response (AID 504840); type: functional
T1 sequence (Q9GZV3 whole entry): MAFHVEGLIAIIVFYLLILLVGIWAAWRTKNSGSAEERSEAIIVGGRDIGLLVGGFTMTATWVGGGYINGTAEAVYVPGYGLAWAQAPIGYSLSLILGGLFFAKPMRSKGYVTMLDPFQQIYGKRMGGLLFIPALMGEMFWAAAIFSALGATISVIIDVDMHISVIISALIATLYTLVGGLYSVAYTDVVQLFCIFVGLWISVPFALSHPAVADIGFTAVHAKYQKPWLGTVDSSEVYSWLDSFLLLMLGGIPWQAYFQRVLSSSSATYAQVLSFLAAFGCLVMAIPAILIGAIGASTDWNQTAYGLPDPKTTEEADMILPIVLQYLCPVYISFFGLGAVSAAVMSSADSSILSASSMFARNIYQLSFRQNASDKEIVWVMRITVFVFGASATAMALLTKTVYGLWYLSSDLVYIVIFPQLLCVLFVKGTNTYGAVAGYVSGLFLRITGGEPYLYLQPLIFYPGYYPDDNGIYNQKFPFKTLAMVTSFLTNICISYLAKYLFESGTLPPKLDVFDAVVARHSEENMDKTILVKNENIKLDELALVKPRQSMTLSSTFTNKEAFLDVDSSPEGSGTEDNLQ

[2] = THP-1 cell cytotoxicity, dose response, cytotoxicity control for non-replicating M. tuberculosis project (AID 489025); type: functional
[3] = Vero E6 cell cytotoxicity, dose response, cytotoxicity control for non-replicating M. tuberculosis project, secondary assay (AID 492998); type: functional, VeroE6; details: Vero C1008
[4] = cells; type: functional
[5] = target: Heat shock protein HSP 90-alpha (Homo sapiens, UniProt P07900); type: functional, organism-based
[6] = target: Cytochrome P450 3A4 (Homo sapiens, UniProt P08684);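 note: CYP3A4 tested as one member of a cytochrome P450 panel screen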
[7] = target: T2, Coagulation factor XII (Homo sapiens, UniProt P00748); type: functional;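 note: activated factor XIIa alpha cleaving a fluorogenic AMC peptide substrate; inhibitor potency from loss of enzyme activity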
T2 sequence (P00748 whole entry): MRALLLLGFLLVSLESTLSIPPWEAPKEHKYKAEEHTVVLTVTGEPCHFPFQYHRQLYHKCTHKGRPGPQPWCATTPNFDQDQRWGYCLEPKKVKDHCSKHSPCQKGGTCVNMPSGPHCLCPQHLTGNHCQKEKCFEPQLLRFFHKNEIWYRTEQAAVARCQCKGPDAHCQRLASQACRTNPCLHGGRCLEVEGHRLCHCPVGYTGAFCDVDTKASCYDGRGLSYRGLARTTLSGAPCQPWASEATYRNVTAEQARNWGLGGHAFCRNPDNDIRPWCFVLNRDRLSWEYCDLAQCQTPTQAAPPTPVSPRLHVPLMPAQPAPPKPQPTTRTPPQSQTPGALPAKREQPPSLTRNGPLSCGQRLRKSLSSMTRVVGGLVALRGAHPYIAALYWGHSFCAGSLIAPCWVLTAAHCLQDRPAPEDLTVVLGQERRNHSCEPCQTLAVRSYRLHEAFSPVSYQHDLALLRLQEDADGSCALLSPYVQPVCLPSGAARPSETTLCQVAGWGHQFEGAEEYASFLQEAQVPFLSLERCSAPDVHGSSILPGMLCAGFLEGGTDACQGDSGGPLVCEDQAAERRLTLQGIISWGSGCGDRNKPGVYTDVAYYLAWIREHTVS

[8] = target: Luciferin 4-monooxygenase (Photinus pyralis, UniProt P08659); test: inhibition of purified Photinus pyralis luciferase – biochemical, luminescence, dose response (AID 1891)
[9] = Luminescence Cell-Based Dose Confirmation HTS to Identify Inhibitors of Platelet Dense Granule Release. [Related pubchem assays: 1663 (Primary HTS), 1678 (Summary of Project)]; type: functional
[10] = target: Cytochrome P450 2C19 (Homo sapiens, UniProt P33261); test: Cytochrome panel assay with activity outcomes. Panel member name: p450-cyp2c19 Compounds with AC50 equal or less than 10 uM are considered active; type: functional; details: read-out: AC50
[11] = target: Glucose-6-phosphate 1-dehydrogenase (Homo sapiens, UniProt P11413); test: inhibition of Homo sapiens G6PD, dose series – biochemical, fluorescence, selectivity assay for P. falciparum G6PD inhibitor project, dose response (AID 504792); type: functional
Chain of Glucose-6-phosphate 1-dehydrogenase (P11413 whole entry): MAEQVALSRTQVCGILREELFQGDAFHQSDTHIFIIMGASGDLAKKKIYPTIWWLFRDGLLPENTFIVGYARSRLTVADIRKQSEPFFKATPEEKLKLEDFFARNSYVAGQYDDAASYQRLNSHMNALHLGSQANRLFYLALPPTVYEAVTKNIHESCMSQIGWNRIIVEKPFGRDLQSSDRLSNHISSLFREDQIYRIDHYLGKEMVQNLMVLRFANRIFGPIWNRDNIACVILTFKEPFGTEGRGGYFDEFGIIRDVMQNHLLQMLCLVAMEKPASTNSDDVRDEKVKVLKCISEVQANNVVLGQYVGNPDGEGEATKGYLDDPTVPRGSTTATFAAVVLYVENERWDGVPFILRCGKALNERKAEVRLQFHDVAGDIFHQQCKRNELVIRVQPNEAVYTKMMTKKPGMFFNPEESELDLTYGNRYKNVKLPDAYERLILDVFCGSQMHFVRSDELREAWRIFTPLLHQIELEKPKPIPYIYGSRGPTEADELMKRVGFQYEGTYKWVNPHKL

Chain of Cytochrome P450 3A4 (P08684 whole entry): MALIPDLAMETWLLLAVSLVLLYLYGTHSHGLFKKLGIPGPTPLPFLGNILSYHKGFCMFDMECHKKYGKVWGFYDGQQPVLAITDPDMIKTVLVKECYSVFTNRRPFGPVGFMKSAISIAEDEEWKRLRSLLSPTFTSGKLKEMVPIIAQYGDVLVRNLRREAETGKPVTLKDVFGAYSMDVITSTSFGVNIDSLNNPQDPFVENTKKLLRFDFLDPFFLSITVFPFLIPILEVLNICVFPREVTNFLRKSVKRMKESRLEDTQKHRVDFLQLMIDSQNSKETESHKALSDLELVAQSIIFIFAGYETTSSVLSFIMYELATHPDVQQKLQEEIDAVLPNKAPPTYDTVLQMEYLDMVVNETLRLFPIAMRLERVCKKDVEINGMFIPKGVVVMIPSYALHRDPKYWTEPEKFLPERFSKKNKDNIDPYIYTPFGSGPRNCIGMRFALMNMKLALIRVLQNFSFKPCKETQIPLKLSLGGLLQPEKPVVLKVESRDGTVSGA
Chain of Luciferin 4-monooxygenase (P08659 whole entry): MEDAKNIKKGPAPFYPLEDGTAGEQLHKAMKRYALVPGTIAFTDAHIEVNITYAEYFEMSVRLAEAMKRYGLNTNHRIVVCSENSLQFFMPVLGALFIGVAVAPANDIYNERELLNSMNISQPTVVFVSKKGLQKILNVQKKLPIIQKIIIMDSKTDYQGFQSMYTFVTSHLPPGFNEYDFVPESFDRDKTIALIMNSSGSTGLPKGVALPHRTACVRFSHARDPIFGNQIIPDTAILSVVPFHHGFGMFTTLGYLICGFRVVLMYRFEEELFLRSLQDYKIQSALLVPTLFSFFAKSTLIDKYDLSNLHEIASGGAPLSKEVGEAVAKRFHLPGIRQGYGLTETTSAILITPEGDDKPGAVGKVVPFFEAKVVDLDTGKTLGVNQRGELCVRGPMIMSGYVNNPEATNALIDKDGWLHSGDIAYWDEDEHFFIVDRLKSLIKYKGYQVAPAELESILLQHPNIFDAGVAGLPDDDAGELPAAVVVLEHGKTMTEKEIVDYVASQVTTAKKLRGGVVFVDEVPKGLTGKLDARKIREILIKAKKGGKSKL
Chain of Cytochrome P450 2C19 (P33261 whole entry): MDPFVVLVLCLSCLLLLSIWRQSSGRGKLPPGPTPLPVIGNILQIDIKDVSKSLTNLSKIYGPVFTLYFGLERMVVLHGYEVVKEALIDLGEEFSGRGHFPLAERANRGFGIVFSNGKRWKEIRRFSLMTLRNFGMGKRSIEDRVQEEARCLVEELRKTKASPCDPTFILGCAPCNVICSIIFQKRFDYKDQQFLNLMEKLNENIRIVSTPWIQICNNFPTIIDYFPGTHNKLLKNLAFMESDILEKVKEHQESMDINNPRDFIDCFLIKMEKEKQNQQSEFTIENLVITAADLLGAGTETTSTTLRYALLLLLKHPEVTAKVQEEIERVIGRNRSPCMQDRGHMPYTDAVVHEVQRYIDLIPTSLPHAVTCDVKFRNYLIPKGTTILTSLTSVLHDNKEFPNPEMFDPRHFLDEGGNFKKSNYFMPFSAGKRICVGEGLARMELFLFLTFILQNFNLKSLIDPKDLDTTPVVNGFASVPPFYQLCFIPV

In the case of `COc1ccccc1CN1C(=O)[C@@H]2C(CCC(N)=O)NC3(C(=O)Nc4c3ccc(Cl)c4C)[C@@H]2C1=O` (stereo partly specified), the IC50 [1] is reported as 16.6 µM (active).

With `O=C(Nc1nnc(-c2ccc(F)cc2)o1)c1cc(Cl)sc1Cl` the CC50 [2] was 24.2 µM (active), the CC50 [3] was 15.3 µM (active) and the IC50 [4] was 0.24 µM (active). The IC50 [1] was 14.5 µM (active) and the AC50 [5] was 1.99 µM (active).

For `O=C(c1cccc(F)c1)N1CCC2(CC1)CN(c1ccc(-c3ccccc3)cc1)C2`, the AC50 [6] was “inconclusive”.

For `CCOC(=O)C1(Cc2cccc(F)c2)CCN(C(=O)Cn2cnnn2)CC1`, the IC50 [7] was > 50 µM (inactive).

In the case of `CCOC(=O)c1c(C)nc2sc3c(=O)n(-c4ccc(OC)cc4)nnc3c2c1-c1ccc(OC)cc1`, the EC50 [8] is reported as > 112 µM (not active), the AC50 [6] is reported as “inconclusive” and the EC50 [9] is reported as > 112 µM (not active). The AC50 [10] was 2.51 µM (inconclusive).

With `CC(C)Cn1c(-c2ccccc2)nc2ccccc2c1=O` the IC50 [7] was > 50 µM (inactive).

For `CCCCc1ccc(NC(=O)CSc2nc(=O)n(CCCN3CCOCC3)c3c2CCC3)cc1`, the IC50 [1] was 13.8 µM (active).

In the case of `COc1ccc(CCn2c(NN=C3CCCCC3)nc3c2c(=O)[nH]c(=O)n3C)cc1`, the IC50 [11] is reported as 11.6 µM (active).

For `O=C(Nc1nnc(S(=O)(=O)N2CCCC2)s1)c1cccc([N+](=O)[O-])c1`, the IC50 [11] was 56 µM (inactive).
